The results in this text go back to PubChem BioAssay AID1259407 (Chemical Carcinogenesis Research Information System (CCRIS), 2018).

The source made the active and inactive calls. How the calls were made is not given here.

The subject of the series is CCRIS mutagenicity, Ames/micronucleus/aberration tests. The series can be described thus: CCRIS mutagenicity studies.
Setting [1] is: Test System: AMES SALMONELLA TYPHIMURIUM, Strain/Indicator: TA1535, Metabolic Activation: NONE, Method: PREINCUBATION
Setting [2] is: Test System: AMES SALMONELLA TYPHIMURIUM, Strain/Indicator: TA1535, Metabolic Activation: NONE, Method: STANDARD PLATE.
Where [3] appears, read: Test System: AMES SALMONELLA TYPHIMURIUM, Strain/Indicator: TA98, Metabolic Activation: NONE, Method: STANDARD PLATE.
[4] abbreviates: Test System: AMES SALMONELLA TYPHIMURIUM, Strain/Indicator: TA98, Metabolic Activation: RAT, LIVER, S-9, AROCLOR 1254, Method: STANDARD PLATE.
Where [5] appears, read: Test System: AMES SALMONELLA TYPHIMURIUM, Strain/Indicator: TA100, Metabolic Activation: NONE, Method: STANDARD PLATE.
The mark [6] stands for this setting: Test System: AMES SALMONELLA TYPHIMURIUM, Strain/Indicator: TA100, Metabolic Activation: RAT, LIVER, S-9, AROCLOR 1254, Method: STANDARD PLATE.

With `CN=[N+](C)[O-]`, the mutagenic call (Test System: AMES SALMONELLA TYPHIMURIUM, Strain/Indicator: TA100, Metabolic Activation: RAT, LIVER, S-9, KC500 OR PHENOBARBITAL, Method: LIQUID SUSPENSION) was “active; positive”; the mutagenic call (Test System: AMES SALMONELLA TYPHIMURIUM, Strain/Indicator: TA1535, Metabolic Activation: HAMSTER, LIVER, S-9, AROCLOR 1254, Method: PREINCUBATION) is “inactive; negative”; the mutagenic call under setting [1] is “inactive; negative”; the mutagenic call under setting [2] is “inactive; negative”; the mutagenic call (Test System: AMES SALMONELLA TYPHIMURIUM, Strain/Indicator: TA1535, Metabolic Activation: RAT, LIVER, S-9, AROCLOR 1254, Method: PREINCUBATION) was “inactive; negative”; the mutagenic call (Test System: AMES SALMONELLA TYPHIMURIUM, Strain/Indicator: TA1535, Metabolic Activation: RAT, LIVER, S-9, KC500 OR PHENOBARBITAL, Method: LIQUID SUSPENSION) was “active; positive”. The mutagenic call reads like this: (Test System: AMES SALMONELLA TYPHIMURIUM, Strain/Indicator: YG7108, Metabolic Activation: NONE, Method: STANDARD PLATE) “active; positive”; (Test System: E. COLI, Strain/Indicator: WP2 UVRA, Metabolic Activation: HAMSTER, LIVER, S-9, AROCLOR 1254, Method: PREINCUBATION) “inactive; negative”; (Test System: E. COLI, Strain/Indicator: WP2 UVRA, Metabolic Activation: HAMSTER, LIVER, S-9, Method: PREINCUBATION) “inactive; negative”; (Test System: E. COLI, Strain/Indicator: WP2 UVRA, Metabolic Activation: MOUSE, LIVER, S-9, AROCLOR 1254, Method: PREINCUBATION) “inactive; negative”; (Test System: E. COLI, Strain/Indicator: WP2 UVRA, Metabolic Activation: MOUSE, LIVER, S-9, Method: PREINCUBATION) “inactive; negative”; (Test System: E. COLI, Strain/Indicator: WP2 UVRA, Metabolic Activation: NONE, Method: PREINCUBATION) “inactive; negative”. The mutagenic call is “inactive; negative” (Test System: E. COLI, Strain/Indicator: WP2 UVRA, Metabolic Activation: RAT, LIVER, S-9, AROCLOR 1254, Method: PREINCUBATION) and “inactive; negative” (Test System: E. COLI, Strain/Indicator: WP2 UVRA, Metabolic Activation: RAT, LIVER, S-9, Method: PREINCUBATION).

Turning to `CC(C)NCC(O)COc1cccc2[nH]c3ccccc3c12` (stereo not given), the mutagenic call is “inactive; negative” under setting [3], “inactive; negative” under setting [4], “inactive; negative” under setting [5] and “inactive; negative” under setting [6].

Take `Cc1cc2c(N3CCCC3)nc(N3CCCC3)nc2n1C`: under “Test System: UDS RAT HEPATOCYTES, Strain/Indicator: THY-INCORP, Metabolic Activation: NONE, Method: AUTORADIOGRAPHY”, the mutagenic call is “active; positive”.

For `O=C1C=Cc2ccccc2C1=O`, the mutagenic call by setting is: (Test System: AMES SALMONELLA TYPHIMURIUM, Strain/Indicator: TA97, Metabolic Activation: NONE, Method: PREINCUBATION) “active; positive”; (Test System: AMES SALMONELLA TYPHIMURIUM, Strain/Indicator: TA97, Metabolic Activation: RAT, LIVER, S-9, PHENOBARBITAL AND 5,6-BENZOFLAVONE, Method: PREINCUBATION) “inactive; negative”; (Test System: AMES SALMONELLA TYPHIMURIUM, Strain/Indicator: TA97A, Metabolic Activation: NONE, Method: PREINCUBATION) “active; positive”; (Test System: AMES SALMONELLA TYPHIMURIUM, Strain/Indicator: TA98, Metabolic Activation: RAT, LIVER, S-9, PHENOBARBITAL AND 5,6-BENZOFLAVONE, Method: PREINCUBATION) “inactive; negative”; (Test System: AMES SALMONELLA TYPHIMURIUM, Strain/Indicator: TA100, Metabolic Activation: NONE, Method: PREINCUBATION) “active; positive”; (Test System: AMES SALMONELLA TYPHIMURIUM, Strain/Indicator: TA100, Metabolic Activation: RAT, LIVER, S-9, PHENOBARBITAL AND 5,6-BENZOFLAVONE, Method: PREINCUBATION) “active; positive”. Besides, the mutagenic call by setting is: (Test System: AMES SALMONELLA TYPHIMURIUM, Strain/Indicator: TA102, Metabolic Activation: RAT, LIVER, S-9, PHENOBARBITAL AND 5,6-BENZOFLAVONE, Method: PREINCUBATION) “inactive; negative”; (Test System: AMES SALMONELLA TYPHIMURIUM, Strain/Indicator: TA104, Metabolic Activation: NONE, Method: PREINCUBATION) “active; positive”; (Test System: AMES SALMONELLA TYPHIMURIUM, Strain/Indicator: TA104, Metabolic Activation: RAT, LIVER, S-9, PHENOBARBITAL AND 5,6-BENZOFLAVONE, Method: PREINCUBATION) “active; positive”; under setting [1], “inactive; negative”; (Test System: AMES SALMONELLA TYPHIMURIUM, Strain/Indicator: TA1535, Metabolic Activation: RAT, LIVER, S-9, PHENOBARBITAL AND 5,6-BENZOFLAVONE, Method: PREINCUBATION) “inactive; negative”; (Test System: AMES SALMONELLA TYPHIMURIUM, Strain/Indicator: TA1537, Metabolic Activation: NONE, Method: PREINCUBATION) “inactive; negative”. Moreover, the mutagenic call (Test System: AMES SALMONELLA TYPHIMURIUM, Strain/Indicator: TA1537, Metabolic Activation: RAT, LIVER, S-9, PHENOBARBITAL AND 5,6-BENZOFLAVONE, Method: PREINCUBATION) is “inactive; negative”; the mutagenic call (Test System: AMES SALMONELLA TYPHIMURIUM, Strain/Indicator: TA1538, Metabolic Activation: NONE, Method: PREINCUBATION) was “inactive; negative”; the mutagenic call (Test System: AMES SALMONELLA TYPHIMURIUM, Strain/Indicator: TA1538, Metabolic Activation: RAT, LIVER, S-9, PHENOBARBITAL AND 5,6-BENZOFLAVONE, Method: PREINCUBATION) is “inactive; negative”; the mutagenic call (Test System: AMES SALMONELLA TYPHIMURIUM, Strain/Indicator: TA2637, Metabolic Activation: NONE, Method: PREINCUBATION) was “active; positive”; the mutagenic call (Test System: AMES SALMONELLA TYPHIMURIUM, Strain/Indicator: TA2637, Metabolic Activation: RAT, LIVER, S-9, PHENOBARBITAL AND 5,6-BENZOFLAVONE, Method: PREINCUBATION) was “inactive; negative”.

`Cc1ccc2nc3c4c(ccc3c(CO)c2c1)[C@H](O)[C@@H](O)C=C4`: under setting [6], the mutagenic call is “active; positive”.

As to `Cc1cc(C(O)c2ncc([N+](=O)[O-])n2C)c(O)c(C(C)(C)C)c1` (stereo not given), the mutagenic call by setting is: under setting [3], “inactive; negative”; under setting [4], “inactive; negative”; under setting [5], “inactive; negative”; under setting [6], “inactive; negative”; under setting [2], “inactive; negative”; (Test System: AMES SALMONELLA TYPHIMURIUM, Strain/Indicator: TA1535, Metabolic Activation: RAT, LIVER, S-9, AROCLOR 1254, Method: STANDARD PLATE) “inactive; negative”. Also, the mutagenic call is “inactive; negative” (Test System: AMES SALMONELLA TYPHIMURIUM, Strain/Indicator: TA1537, Metabolic Activation: NONE, Method: STANDARD PLATE); “inactive; negative” (Test System: AMES SALMONELLA TYPHIMURIUM, Strain/Indicator: TA1537, Metabolic Activation: RAT, LIVER, S-9, AROCLOR 1254, Method: STANDARD PLATE); “inactive; negative” (Test System: AMES SALMONELLA TYPHIMURIUM, Strain/Indicator: TA1538, Metabolic Activation: NONE, Method: STANDARD PLATE); “inactive; negative” (Test System: AMES SALMONELLA TYPHIMURIUM, Strain/Indicator: TA1538, Metabolic Activation: RAT, LIVER, S-9, AROCLOR 1254, Method: STANDARD PLATE).

Consider `OCNc1ncnc2c1ncn2[C@@H]1O[C@H](CO)[C@@H](O)[C@H]1O`, for which the mutagenic call is “inactive; negative” (Test System: AMES SALMONELLA TYPHIMURIUM, Strain/Indicator: TA100(TN5-1,8-DNP1011), Metabolic Activation: NONE, Method: STANDARD PLATE); “active; positive” (Test System: AMES SALMONELLA TYPHIMURIUM, Strain/Indicator: TA100(TN5-1,8-DNP1012), Metabolic Activation: NONE, Method: STANDARD PLATE); “inactive; negative” under setting [5].
